From publication PMC8237267 (Journal of Medicinal Chemistry, 2021)

Assays:
HDAC6 = biological target: T1, HDAC6 (Homo sapiens, UniProt Q9UBN7); assay: Determination of Ki (Kon kinetics); format: biochemical; settings: time-dependent inhibition Kon experiment
T1 sequence (Q9UBN7 1-1215): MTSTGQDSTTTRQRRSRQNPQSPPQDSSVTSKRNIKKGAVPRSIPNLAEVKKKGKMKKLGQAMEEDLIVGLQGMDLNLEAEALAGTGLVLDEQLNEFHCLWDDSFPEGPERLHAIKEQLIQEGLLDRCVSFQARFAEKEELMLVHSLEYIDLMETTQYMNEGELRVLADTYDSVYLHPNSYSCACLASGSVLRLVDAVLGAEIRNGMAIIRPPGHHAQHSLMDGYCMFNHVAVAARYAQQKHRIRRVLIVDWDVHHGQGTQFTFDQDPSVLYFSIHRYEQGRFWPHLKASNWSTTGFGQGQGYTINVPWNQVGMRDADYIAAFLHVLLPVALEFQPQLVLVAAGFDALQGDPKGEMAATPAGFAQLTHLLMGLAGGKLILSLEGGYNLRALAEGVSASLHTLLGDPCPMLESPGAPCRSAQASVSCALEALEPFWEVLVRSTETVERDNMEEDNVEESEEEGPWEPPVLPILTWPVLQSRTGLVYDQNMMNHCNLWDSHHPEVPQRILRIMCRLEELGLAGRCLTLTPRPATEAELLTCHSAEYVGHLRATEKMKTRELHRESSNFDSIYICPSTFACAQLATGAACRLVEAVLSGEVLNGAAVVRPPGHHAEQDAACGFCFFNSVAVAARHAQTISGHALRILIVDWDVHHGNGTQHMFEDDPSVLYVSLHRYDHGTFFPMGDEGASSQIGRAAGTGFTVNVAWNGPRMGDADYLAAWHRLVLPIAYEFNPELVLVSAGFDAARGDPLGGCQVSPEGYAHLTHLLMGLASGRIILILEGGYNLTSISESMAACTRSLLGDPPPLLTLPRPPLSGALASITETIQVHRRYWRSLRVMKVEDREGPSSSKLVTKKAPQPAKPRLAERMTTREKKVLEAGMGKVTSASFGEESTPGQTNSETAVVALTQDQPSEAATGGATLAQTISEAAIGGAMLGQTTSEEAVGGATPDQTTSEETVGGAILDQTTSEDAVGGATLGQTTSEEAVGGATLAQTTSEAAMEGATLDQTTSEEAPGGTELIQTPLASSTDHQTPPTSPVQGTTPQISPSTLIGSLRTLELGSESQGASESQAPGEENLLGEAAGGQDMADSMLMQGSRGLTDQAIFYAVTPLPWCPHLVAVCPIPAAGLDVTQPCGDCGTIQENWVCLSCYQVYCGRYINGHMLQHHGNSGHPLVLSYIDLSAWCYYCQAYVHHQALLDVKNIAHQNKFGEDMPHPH
Description: Serial dilutions of compound were mixed with 3 nM HDAC6 enzyme and substrate peptide in assay buffer. Progress curves were acquired without preincubation for ∼5 h on a Labchip3000 instrument. Progress curves in the presence of compound were fit with the following equation: ((A + (Vs × x)) + (((Vo – Vs) × (1 – exp((−1 × Kobs) × t)))/Kobs)). To determine observed rate of inhibition, Vo was locked to that in control (Vi, DMSO only). Fractional steady state velocity (Vs/Vi) and Kobs values were plotted against [compound] to determine Ki and residence time.

[1] = test system: acetylation of histone H3; assay: Immunofluorescence assay in HeLa cells; format: cell-based; settings: 6 h, increasing doses
Description: (§1) HeLa cells were plated to subconfluency on a 96-well plate (clear bottom black from Fisher Scientific). As above, inhibitors were introduced following 24 h. The cells were washed with 1× PBS, fixed with 4% formaldehyde (Millipore Sigma), permeabilized with 1% Triton X-100 (Millipore Sigma), and blocked in 5% bovine serum albumin (BSA) (BioShop) for 1 h at room temperature. Following this treatment, the cells were incubated in a cocktail composed of acetylated α-tubulin mouse monoclonal (1:100 dilution, MD Millipore) and acetylated histone H3 (1:50 dilution, Ac-Lys18, Sigma) antibodies. Secondary antibodies anti-mouse Alexa Fluor 647 and anti-rabbit Alexa Fluor 488 were used for immunofluorescent detection. Cells were counterstained for nucleic acids using 4′,6-diamidino-2-phenylindole (DAPI) (ThermoFisher Scientific). The cells were imaged with a Cytation S63 spectrophotometer and the fluorescence intensity was determined using ImageJ (n = 3). Two-way ANOVA with Tukey’s multiple comparisons test were performed using GraphPad Prism 6.0 (GraphPad Software Inc.). A p-value ≤ 0.05 was considered significant.

acetylation of α-tubulin = assay: Immunofluorescence assay in HeLa cells; format: cell-based; settings: 6 h, increasing doses
Description: as §1

MV4-11 cells = assay: FACS apoptosis detection assay (Annexin V/PI); format: cell-based; settings: MV4-11, 18 h, listed as KT-531
Description: MV4-11 cells were prepared, dosed, and washed with cold 1× PBS. The resulting cell pellets were resuspended in 1× Binding Buffer (1 × 10^6 cell/mL) from the FITC Annexin V Apoptosis Detection Kit I (BD Pharmingen). Subsequently, the dyes annexin V (5 μL) and propidium iodide (PI, 5 μL) were added to 2.5 × 10^5 cells (250 μL). The suspension was thoroughly mixed and incubated in the dark for 15 min. Following the addition of 250 μL of 1× binding buffer, the cells were analyzed by flow cytometry within 1 h using the Cytoflex S system (Beckman Coulter).

[2] = test system: primary T-PLL patient samples; assay: Ex vivo drug sensitivity (DSS) in primary T-PLL patient samples; format: cell-based, human; settings: p = 0.0007, Wilcoxon test
From the text: Primary T-PLL cells were isolated from peripheral blood (PB) of 10 T-PLL patients. All patients were diagnosed according to WHO criteria based on clinical features, immunophenotyping (flow cytometry and histochemisty; including TCL1 expression), and FISH/karyotyping.[71],[72] Samples were obtained from patients under IRB-approved protocols following written informed consent according to the Declaration of Helsinki. Collection and use of patient material have been approved for research purpose by the ethics committee of the University Hospital of Cologne (EudraCT-Nr.: #2008-001421-34 and AZ11-319) and Helsinki (303/13/03/01/2011).
PB mononuclear cells (PBMCs) of T-PLL samples were obtained by density gradient centrifugation (Histopaque; Sigma-Aldrich). All drug screening in primary T-PLL patient samples were conducted as previously described.[34],[73]

O=C(NO)c1ccc(CN(C2CC2)S(=O)(=O)c2cc(F)c(F)c(F)c2F)cc1 [Compound 14, 4-(((N-Cyclopropyl-2,3,4,5-tetrafluorophenyl)sulfonamido)methyl)-N-hydroxybenzamide]
Ki (HDAC6): 17.3 nM | acetylation of histone H3 (immunofluorescence) [1]: no observable change in acetylation of histone H3 | acetylation of α-tubulin (immunofluorescence) (acetylation of α-tubulin): significant acetylation of α-tubulin was observed | Early Apoptosis (MV4-11 cells; 0.5 μM): 15% | Late Apoptosis (MV4-11 cells; 1 μM): 22% | Healthy (nonapoptotic) (MV4-11 cells; 2 μM): 8% | drug response (DSS) versus vorinostat (SAHA) [2]: more potent drug response
